How the values were obtained:
EstFA = EstFA (Ferroplasma acidiphilum, UniProt Q2PCE5); assay: Enantioselectivity of EstFA towards chiral esters and lactones; type: biochemical; details: for % c / % e.e.: 100 mM citrate buffer pH 2.0, 5 μg EstFA, 10 hours; for E: enantioselectivity
Protocol: For an estimation of enantioselectivity of EstFA towards chiral esters and lactones, a number of primary and secondary alcohols as well as carboxylic acids and lactones were hydrolysed.
The above substrate specificities were tested in 96-well plates, using 100 mM citrate buffer (pH 2.0) in the presence of 5 μg pure EstFA. For the substrate, the concentrations between 10 nM and 10 mM were chosen. Progress of the reaction was followed by spectrophotometry using p-nitrophenol propionate as an indicator. The reaction was stopped after 10 hours by adjusting the pH to 8.0 by adding sodium hydroxide from a 100 mM stock solution and phenol red (0.8 mM) as a pH indicator. […] Ester hydrolysis of enantiomerically pure esters was measured colorimetrically in 5.0 mM EPPS buffer (N-(2-hydroxyethyl) piperazine-N′-(3′-propanesulfonic acid) at pH 8.0 and phenol red after termination of the reaction.

EstFA (acidic esterase) = assay: Effect of cations and inhibitors on recombinant EstFA activity; type: biochemical, Ferroplasma acidiphilum; parameters: substitution of Fe^2+ in EstFA: dose or concentration left out as unconfirmed; details: for substitution of Fe^2+ in EstFA: as chloride salts
Protocol: The enzymes used for the tests were heterologously expressed in E. coli using genomic coding sequences obtained from Ferroplasma acidiphilum.
(§1) The acidic enzymes according to the invention were expressed in E. coli using the genomiccoding sequence for the respective enzyme from Ferroplasma acidiphilum, which are described in detail below. For enzymatic conversions, reaction conditions were in 100 mM sodium acetate buffer, 100 mM citrate buffer, 100 mM HEPES buffer for 2 minutes at 30° C., using p-nitrophenol propionate as the substrate for esterase, starch in the case of glycosidases, and HindIII digested λ DNA for ligase.

[1] = tested on: αGluFA (acidic glucosidase); assay: Effect of cations and inhibitors on recombinant αGluFA activity; type: biochemical, Ferroplasma acidiphilum
Protocol: as §1, with “The enzymes used for the tests were heterologously expressed in E. coli using genomic coding sequences obtained from Ferroplasma acidiphilum. The” for “The”

LigFA (acidic ligase) = assay: Effect of cations and inhibitors on recombinant LigFA activity; type: biochemical, Ferroplasma acidiphilum
Protocol: as §1, with “The enzymes used for the tests were heterologously expressed in E. coli using genomic coding sequences obtained from Ferroplasma acidiphilum. The” for “The”

αGluFA = αGluFA (Ferroplasma acidiphilum, UniProt Q5K3Q3); assay: Hydrolysis of glycosidic substrates by αGluFA; type: biochemical; details: pH 3.0, 50° C., 100 μM FeCl2
Chain of αGluFA (Q5K3Q3 entry or part of it): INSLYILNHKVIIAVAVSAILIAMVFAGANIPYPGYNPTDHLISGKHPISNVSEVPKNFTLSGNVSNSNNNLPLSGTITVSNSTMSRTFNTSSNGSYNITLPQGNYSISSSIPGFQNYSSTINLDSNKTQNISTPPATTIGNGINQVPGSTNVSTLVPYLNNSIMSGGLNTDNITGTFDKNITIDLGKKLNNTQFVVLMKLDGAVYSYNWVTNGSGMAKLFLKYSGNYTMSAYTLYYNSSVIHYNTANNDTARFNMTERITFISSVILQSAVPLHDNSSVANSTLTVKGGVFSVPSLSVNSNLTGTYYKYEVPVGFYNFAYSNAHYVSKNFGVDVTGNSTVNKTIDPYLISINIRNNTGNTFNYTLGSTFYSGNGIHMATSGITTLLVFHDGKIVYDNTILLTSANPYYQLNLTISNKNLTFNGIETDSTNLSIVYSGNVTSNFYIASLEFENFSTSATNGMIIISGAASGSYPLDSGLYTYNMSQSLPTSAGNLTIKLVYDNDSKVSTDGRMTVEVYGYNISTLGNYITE
Protocol: A variety of glycosidic substrates were examined for hydrolysis by αGluFA and kinetic constants were determined. For the assay, heterologously expressed αGluFA was incubated in 100 mM sodium citrate buffer, pH 3.0, containing 1% substrate, 100 μM FeCl2 and 5 μg αGluFA. […] Analysis was done by HPLC. Sample blanks were used for correction of spontaneous release of reducing sugar.
As substrates, sucrose, starch, amylose, amylopectin, pullulan and dextrin were used, the release of reducing sugars could also be determined by the dinitrosalicylic acid method, i.e. adding dinitrosalicylic acid solution to the reaction mixture, heating to 85° C. for 30 minutes, dilution with water and measuring absorbance at 450 nm. Activity towards p-nitrophenol α/β diglucopyranoside could be measured spectrophotometrically by following the absorbance at 346 nm using a molar extinction coefficient of 4800.

Chain of EstFA (Q2PCE5 entry or part of it): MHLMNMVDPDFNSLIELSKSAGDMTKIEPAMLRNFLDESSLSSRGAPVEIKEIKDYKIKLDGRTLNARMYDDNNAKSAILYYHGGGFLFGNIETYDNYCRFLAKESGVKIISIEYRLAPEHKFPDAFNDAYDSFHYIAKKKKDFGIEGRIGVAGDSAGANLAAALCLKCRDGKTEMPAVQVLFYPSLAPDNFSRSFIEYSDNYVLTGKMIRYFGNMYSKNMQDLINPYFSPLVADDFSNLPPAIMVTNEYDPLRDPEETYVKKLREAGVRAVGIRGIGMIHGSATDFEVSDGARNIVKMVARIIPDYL

Compound | % c (EstFA) [%] | % e.e. (EstFA) [%] | E (EstFA) | Activity (%) EstFA (EstFA (acidic esterase); additive 10 mM) [%] | Activity (%) EstFA (EstFA (acidic esterase); additive 125 mM) [%] | Activity (%) αGluFα ([1]; additive 10 mM) [%] | Activity (%) αGluFα ([1]; additive 125 mM) [%] | Activity (%) LigFA (LigFA (acidic ligase); additive 10 mM) [%] | Activity (%) LigFA (LigFA (acidic ligase); additive 125 mM) [%] | also measured
COC(=O)C(C)CO (centres unmarked) [methyl-3-hydroxy-2-methylpropionate] | 30.8 | 98 | 116.2 | – | – | – | – | – | – | –
[Na+] [Na^+] | – | – | – | 102.8 | 91.2 | 86.3 | 74.0 | 71.1 | 100 | –
[Co+2] [Co^2+] | – | – | – | 55.2 | 68.3 | 72.0 | 82.8 | 102.5 | 88.7 | substitution of Fe^2+ in EstFA (EstFA (acidic esterase)): could not substitute Fe^2+
Triton X-100 | – | – | – | – | – | – | – | – | – | Activity (%) EstFA (EstFA (acidic esterase); additive 1%): 74.6%; Activity (%) EstFA (EstFA (acidic esterase); additive 3%): 43.5%; Activity (%) αGluFα ([1]; additive 1%): 95.7%; Activity (%) αGluFα ([1]; additive 3%): 47.4%; Activity (%) LigFA (LigFA (acidic ligase); additive 1%): 62.3%; Activity (%) LigFA (LigFA (acidic ligase); additive 3%): 9.0%
[Zn+2] [Zn^2+] | – | – | – | 57.8 | 4.6 | 1.1 | 16.2 | 5.3 | 10.2 | –
[K+] [K^+] | – | – | – | 108.5 | 115.7 | 86.0 | 76.3 | 129.9 | 93.8 | –
[Ca+2] [Ca^2+] | – | – | – | 116.3 | 100.8 | 91.2 | 74.1 | 126.2 | 81.6 | substitution of Fe^2+ in EstFA (EstFA (acidic esterase)): could not substitute Fe^2+
amylose | – | – | – | – | – | – | – | – | – | Kcat (αGluFA): 126.0 ± 7.5 s⁻¹; Km (αGluFA): 7.49 ± 0.88 mg/mL
CCCC(=O)OCC1COC(C)(C)O1 (centres unmarked) [solketal butyrate] | 29.0 | 74.46 | 9.2 | – | – | – | – | – | – | –
[Cl][Ni][Cl] [nickel] | – | – | – | – | – | – | – | – | – | substitution of Fe^2+ in EstFA (EstFA (acidic esterase)): could not substitute Fe^2+
soluble starch | – | – | – | – | – | – | – | – | – | Kcat (αGluFA): 94.0 ± 11^ s^−1; Km (αGluFA): 0.11 ± 0.02 mg/mL
COC(=O)CC(C)O (centres unmarked) [methyl-3-hydroxybutyrate] | 26.2 | 98 | 42.8 | – | – | – | – | – | – | –
OCCS [mercaptoethanol] | – | – | – | – | – | – | – | – | – | Activity (%) EstFA (EstFA (acidic esterase); additive 1 mM): 55%
CCCC(=O)OC(C)c1ccccc1 (centres unmarked) [1-phenyl ethylbutyrate] | 36.2 | 33.7 | 2.4 | – | – | – | – | – | – | –
dextrin | – | – | – | – | – | – | – | – | – | Kcat (αGluFA): 93.0 ± 11^ s^−1; Km (αGluFA): 0.221 ± 0.03 mg/mL
O=C1CCC(CO)O1 (centres unmarked) [dihydro-5-hydroxymethyl-2(3H)-furanone] | 39.3 | 88.6 | 29.7 | – | – | – | – | – | – | –
O=C(O)CN(CCN(CC(=O)O)CC(=O)O)CC(=O)O [EDTA] | – | – | – | 16.0 | 9.5 | 10.6 | 9.4 | 17.2 | 7.0 | effect of complexing Fe^2+ on EstFA activity (EstFA (acidic esterase); added EDTA): inhibited the activity of EstFA in a reversible manner
COC(=O)C(C)O (centres unmarked) [methyl lactate] | 3.4 | 2.38 | 1.1 | – | – | – | – | – | – | –
amylopectin | – | – | – | – | – | – | – | – | – | Kcat (αGluFA): 89 ± 10.5 s⁻¹; Km (αGluFA): 1.05 ± 0.19 mg/mL
CCCCCCCCCCCCOS(=O)(=O)[O-].[Na+] [SDS] | – | – | – | 75.2 | – | 2.4 | – | 32.6 | – | Activity (%) EstFA (EstFA (acidic esterase); additive 50 mM): 47.3%; Activity (%) αGluFα ([1]; additive 50 mM): 0.5%; Activity (%) LigFA (LigFA (acidic ligase); additive 50 mM): 27.5%
COC(=O)[C@@H](N)Cc1c[nH]c2ccccc12 [tryptophane methylester] | 4.33 | 2.12 | 1.1 | – | – | – | – | – | – | –
[Sr+2] [Sr^2+] | – | – | – | 102.1 | 106.5 | 98.0 | 71.3 | 90.7 | 20.2 | –
N [NH4^+] | – | – | – | 85.2 | 97.1 | 103.8 | 58.8 | 107.2 | 108.2 | –
CC1(C)COC(=O)C1O (centres unmarked) [pantolactone] | 10.06 | 39.36 | 2.40 | – | – | – | – | – | – | –
pullulan | – | – | – | – | – | – | – | – | – | Kcat (αGluFA): 2.8 ± 0.1 s⁻¹; Km (αGluFA): 11.0 ± 0.1 mg/mL
COC(=O)[C@H](C)N [alanine methylester] | 8.71 | 2.5 | 3.8 | – | – | – | – | – | – | –
CC(=O)OC1CC(C)CCC1C(C)C (centres unmarked) [menthyl acetate] | 42.2 | 78.4 | 14.7 | – | – | – | – | – | – | –
[Mn+2] [manganese] | – | – | – | – | – | – | – | – | – | substitution of Fe^2+ in EstFA (EstFA (acidic esterase)): could not substitute Fe^2+
[Li+] [Li^+] | – | – | – | 100.2 | 48.0 | 107.2 | 69.4 | 101.6 | 107.9 | –
[Mg+2] [Mg^2+] | – | – | – | 106.1 | 116.8 | 92.2 | 64.7 | 157.0 | 126.8 | substitution of Fe^2+ in EstFA (EstFA (acidic esterase)): could not substitute Fe^2+

Source: patent publication US8003357B2, “Acidophilic enzymes” (Helmholtz-Zentrum Fuer Infektionsforschung GmbH, priority 2005, dated 2011)
